These results are taken from US20080004236A1, “High Dose, Short Interval Use of Sulfated Polysaccharides for Treatment of Infections” (priority 2004, published 2008).

Data set [1] in a line: Maximum tolerated dose in rats.
Data set [2] can be described thus: Maximum tolerated dose in monkeys.
A short description of data set [3]: Maximum tolerated dose in dogs.
For data set [4] the following is noted: maximally tolerated dose, continuous infusion up to 14 days, subjects with symptomatic HIV infection; cited from earlier work.

For the substance dextran sulfate [listing 1 of 3 here], in data set [1], the “maximum tolerated dose (MTD)” value is recorded as “about 800 mg/kg/day”.

Take dextran sulfate [listing 2 of 3 here]: the figures for the “maximum tolerated dose (MTD)” value in data set [2] and in data set [3] were “about 300 mg/kg/day” and “about 500 mg/kg/day”, respectively.

Turning to dextran sulfate [listing 3 of 3 here], in data set [4], the “toxicity of continuous intravenous infusion” value was “toxic”.
